Where two headings read alike, the source gives them in different places. *1 amine or outer side, *2 acyl side, *3 side chain or, on linkers, in order; H or OH if unused. Where a SMILES comes first, the peptide text is derived from it. Bridges are numbered along the chain shown (N, C = ends). [ ]: non-standard residue; d: D form. TATA = O=C(CC[*:1])N1CN(C(=O)CC[*:2])CN(C(=O)CC[*:3])C1; NMeT = CN[C@H](C(=O)O)[C@@H](C)O; hArg = N=C(N)NCCCC[C@H](N)C(=O)O
Target: T1, human Nectin-4 (Homo sapiens, UniProt Q96NY8)
T1 sequence (Q96NY8 32-510): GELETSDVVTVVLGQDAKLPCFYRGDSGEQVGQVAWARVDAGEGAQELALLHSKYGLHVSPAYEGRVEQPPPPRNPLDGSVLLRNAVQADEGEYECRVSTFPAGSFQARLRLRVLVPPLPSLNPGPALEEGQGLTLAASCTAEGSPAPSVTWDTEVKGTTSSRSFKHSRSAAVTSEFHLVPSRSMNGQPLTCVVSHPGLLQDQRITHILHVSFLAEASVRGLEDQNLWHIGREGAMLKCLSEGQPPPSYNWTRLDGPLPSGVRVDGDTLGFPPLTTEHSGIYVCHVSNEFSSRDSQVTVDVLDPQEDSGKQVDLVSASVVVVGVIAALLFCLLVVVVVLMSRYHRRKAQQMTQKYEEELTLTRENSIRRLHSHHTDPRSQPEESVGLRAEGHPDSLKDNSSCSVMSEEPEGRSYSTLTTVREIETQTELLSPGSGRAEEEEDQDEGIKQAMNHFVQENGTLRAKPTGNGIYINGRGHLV
Assay: Nectin-4 competition binding assay (fluorescence polarisation)
How it was run: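 Ki derived by cubic-equation fit of mP data, with tracer peptide concentration, its Kd and Nectin-4 level as fixed inputs. Competition set up by adding 2-fold peptide dilutions (≤5% DMSO), then Nectin-4, then fluorescent peptide; polarisation measured as for direct binding.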

[1] = competition with fluorescent peptide SEQ ID NO: 217, read-out: Ki

SMILES	Ki [1]	Ki
CC[C@H](C)[C@@H]1NC(=O)[C@H](CCCNC(=N)N)NC(=O)[C@H](CC(N)=O)NC(=O)[C@@H]2CSCCC(=O)N3CN(CN(C3)C(=O)CCSC[C@H](NC(=O)[C@H](Cc3c[nH]c4ccccc34)NC(=O)[C@H](CCCCN)NC(=O)[C@H](CCC(N)=O)NC(C)=O)C(=O)N[C@@H](C)C(=O)N3CCC[C@H]3C(=O)N[C@@H](CC(C)C)C(=O)N[C@@H](C)C(=O)N[C@@H](CC(=O)O)C(=O)N[C@@H](Cc3ccc(O)cc3)C(=O)N[C@@H](Cc3c[nH]c4ccccc34)C(=O)N2)C(=O)CCSC[C@@H](C(N)=O)NC1=O [BCY7627, Ac-QKW-(SEQ ID NO: 104)] (Ac-QKWCAPLADYWCNRIC-NH2; linker 4-12-16 via TATA; C-terminus assumed)	101 nM	
CC[C@H](C)[C@@H]1NC(=O)[C@H](CCCNC(=N)N)NC(=O)[C@H](C)NC(=O)[C@@H]2CSCCC(=O)N3CN(CN(C3)C(=O)CCSC[C@H](NC(=O)[C@H](Cc3c[nH]c4ccccc34)NC(=O)[C@H](CCCCN)NC(=O)[C@H](CCC(N)=O)NC(C)=O)C(=O)N[C@@H](C)C(=O)N3CCC[C@H]3C(=O)N[C@@H](CC(C)C)C(=O)N[C@@H](CO)C(=O)N[C@@H](CC(=O)O)C(=O)N[C@@H](Cc3ccc(O)cc3)C(=O)N[C@@H](Cc3c[nH]c4ccccc34)C(=O)N2)C(=O)CCSC[C@@H](C(N)=O)NC1=O [BCY7631, Ac-QKW-(SEQ ID NO: 106)] (Ac-QKWCAPLSDYWCARIC-NH2; linker 4-12-16 via TATA; C-terminus assumed)	19 nM	
CC[C@H](C)[C@@H]1NC(=O)[C@H](C)NC(=O)[C@H](CC(N)=O)NC(=O)[C@@H]2CSCCC(=O)N3CN(CN(C3)C(=O)CCSC[C@H](NC(=O)[C@H](Cc3c[nH]c4ccccc34)NC(=O)[C@H](CCCCN)NC(=O)[C@H](CCC(N)=O)NC(C)=O)C(=O)N[C@@H](C)C(=O)N3CCC[C@H]3C(=O)N[C@@H](CC(C)C)C(=O)N[C@@H](CO)C(=O)N[C@@H](CC(=O)O)C(=O)N[C@@H](Cc3ccc(O)cc3)C(=O)N[C@@H](Cc3c[nH]c4ccccc34)C(=O)N2)C(=O)CCSC[C@@H](C(N)=O)NC1=O [BCY7632, Ac-QKW-(SEQ ID NO: 107)] (Ac-QKWCAPLSDYWCNAIC-NH2; linker 4-12-16 via TATA; C-terminus assumed)	123 nM	
CC[C@H](C)[C@@H]1NC(=O)[C@@H]2CCCN2C(=O)[C@H](Cc2c[nH]c3ccccc23)NC(=O)[C@H](CO)NC(=O)[C@H](Cc2c[nH]c3ccccc23)NC(=O)[C@H](CC(N)=O)NC(=O)[C@H](CO)NC(=O)[C@H](CCSC)NC(=O)[C@@H]2CSCCC(=O)N3CN(CN(C3)C(=O)CCSC[C@H](NC(C)=O)C(=O)N3CCC[C@H]3C(=O)N[C@@H](Cc3ccccc3)C(=O)NCC(=O)N2)C(=O)CCSC[C@@H](C(N)=O)NC(=O)[C@H](Cc2c[nH]c3ccccc23)NC1=O [BCY7658, Ac-(SEQ ID NO: 12)] (Ac-CPFGCMSNWSWPIWC-NH2; linker 1-5-15 via TATA; C-terminus assumed)	33.6 nM	
CC[C@H](C)[C@@H]1NC(=O)[C@@H]2CCCN2C(=O)[C@H](Cc2c[nH]c3ccccc23)NC(=O)[C@H](CO)NC(=O)[C@H](Cc2c[nH]c3ccccc23)NC(=O)[C@H](CC(N)=O)NC(=O)[C@H](CC(=O)O)NC(=O)[C@H](CCSC)NC(=O)[C@@H]2CSCCC(=O)N3CN(CN(C3)C(=O)CCSC[C@H](NC(C)=O)C(=O)N3CCC[C@H]3C(=O)N[C@@H](Cc3ccccc3)C(=O)NCC(=O)N2)C(=O)CCSC[C@@H](C(N)=O)NC(=O)[C@H](Cc2c[nH]c3ccccc23)NC1=O [BCY7659, Ac-(SEQ ID NO: 13)] (Ac-CPFGCMDNWSWPIWC-NH2; linker 1-5-15 via TATA; C-terminus assumed)	77.9 nM	
CC[C@H](C)[C@@H]1NC(=O)[C@@H]2CCCN2C(=O)[C@H](Cc2c[nH]c3ccccc23)NC(=O)[C@H](CO)NC(=O)[C@H](Cc2c[nH]c3ccccc23)NC(=O)[C@H](CC(N)=O)NC(=O)[C@H](CCCCNC(=N)N)NC(=O)[C@H](CCSC)NC(=O)[C@@H]2CSCCC(=O)N3CN(CN(C3)C(=O)CCSC[C@H](NC(C)=O)C(=O)N3CCC[C@H]3C(=O)N[C@@H](Cc3ccccc3)C(=O)NCC(=O)N2)C(=O)CCSC[C@@H](C(N)=O)NC(=O)[C@H](Cc2c[nH]c3ccccc23)NC1=O [BCY7660, Ac-(SEQ ID NO: 59)]	26.2 nM	
CC[C@H](C)[C@@H]1NC(=O)[C@@H]2CCCN2C(=O)[C@H](Cc2c[nH]c3ccccc23)NC(=O)[C@H](CO)NC(=O)[C@H](Cc2c[nH]c3ccccc23)NC(=O)[C@H](CC(=O)O)NC(=O)[C@H](CCCCN)NC(=O)[C@H](CCSC)NC(=O)[C@@H]2CSCCC(=O)N3CN(CN(C3)C(=O)CCSC[C@H](NC(C)=O)C(=O)N3CCC[C@H]3C(=O)N[C@@H](Cc3ccccc3)C(=O)NCC(=O)N2)C(=O)CCSC[C@@H](C(N)=O)NC(=O)[C@H](Cc2c[nH]c3ccccc23)NC1=O [BCY7661, Ac-(SEQ ID NO: 15)] (Ac-CPFGCMKDWSWPIWC-NH2; linker 1-5-15 via TATA; C-terminus assumed)		29.4 nM
CC[C@H](C)[C@@H]1NC(=O)[C@@H]2CCCN2C(=O)[C@H](Cc2c[nH]c3ccccc23)NC(=O)[C@H](CO)NC(=O)[C@H](Cc2c[nH]c3ccccc23)NC(=O)[C@H](Cc2c[nH]cn2)NC(=O)[C@H](CCCCN)NC(=O)[C@H](CCSC)NC(=O)[C@@H]2CSCCC(=O)N3CN(CN(C3)C(=O)CCSC[C@H](NC(C)=O)C(=O)N3CCC[C@H]3C(=O)N[C@@H](Cc3ccccc3)C(=O)NCC(=O)N2)C(=O)CCSC[C@@H](C(N)=O)NC(=O)[C@H](Cc2c[nH]c3ccccc23)NC1=O [BCY7662, Ac-(SEQ ID NO: 16)] (Ac-CPFGCMKHWSWPIWC-NH2; linker 1-5-15 via TATA; C-terminus assumed)	14.8 nM	
CC[C@H](C)[C@@H]1NC(=O)[C@@H]2CCCN2C(=O)[C@H](Cc2c[nH]c3ccccc23)NC(=O)[C@H](CO)NC(=O)[C@H](Cc2cccc3ccccc23)NC(=O)[C@H](CC(N)=O)NC(=O)[C@H](CCCCN)NC(=O)[C@H](CCSC)NC(=O)[C@@H]2CSCCC(=O)N3CN(CN(C3)C(=O)CCSC[C@H](NC(C)=O)C(=O)N3CCC[C@H]3C(=O)N[C@@H](Cc3ccccc3)C(=O)NCC(=O)N2)C(=O)CCSC[C@@H](C(N)=O)NC(=O)[C@H](Cc2c[nH]c3ccccc23)NC1=O [BCY7663, Ac-(SEQ ID NO: 111)]	25.5 nM	
CC[C@H](C)[C@@H]1NC(=O)[C@@H]2CCCN2C(=O)[C@H]([C@@H](C)O)NC(=O)[C@H](CO)NC(=O)[C@H](Cc2c[nH]c3ccccc23)NC(=O)[C@H](CC(N)=O)NC(=O)[C@H](CCCCN)NC(=O)[C@H](CCSC)NC(=O)[C@@H]2CSCCC(=O)N3CN(CN(C3)C(=O)CCSC[C@H](NC(C)=O)C(=O)N3CCC[C@H]3C(=O)N[C@@H](Cc3ccccc3)C(=O)NCC(=O)N2)C(=O)CCSC[C@@H](C(N)=O)NC(=O)[C@H](Cc2c[nH]c3ccccc23)NC1=O [BCY7665, Ac-(SEQ ID NO: 19)] (Ac-CPFGCMKNWSTPIWC-NH2; linker 1-5-15 via TATA; C-terminus assumed)	24.1 nM	
CC[C@H](C)[C@@H]1NC(=O)[C@@H]2CCCN2C(=O)[C@H]([C@@H](C)O)NC(=O)[C@H](CO)NC(=O)[C@H](Cc2c[nH]c3ccccc23)NC(=O)[C@H](CCCCN)NC(=O)[C@H](CCCCNC(=N)N)NC(=O)[C@H](CCSC)NC(=O)[C@@H]2CSCCC(=O)N3CN(CN(C3)C(=O)CCSC[C@H](NC(C)=O)C(=O)N3CCC[C@H]3C(=O)N[C@@H](Cc3ccccc3)C(=O)N[C@H](CC(=O)O)C(=O)N2)C(=O)CCSC[C@@H](C(N)=O)NC(=O)[C@H](Cc2c[nH]c3ccccc23)NC1=O [BCY7822, Ac-(SEQ ID NO: 122)]	27 nM	
CC[C@H](C)[C@@H]1NC(=O)[C@@H]2CCCN2C(=O)[C@H]([C@@H](C)O)NC(=O)[C@H](CO)NC(=O)[C@H](Cc2c[nH]c3ccccc23)NC(=O)[C@H](CC(N)=O)NC(=O)[C@H](CCCCNC(=N)N)NC(=O)[C@H](CCSC)NC(=O)[C@@H]2CSCCC(=O)N3CN(CN(C3)C(=O)CCSC[C@H](NC(C)=O)C(=O)N3CCC[C@H]3C(=O)N[C@@H](Cc3ccccc3)C(=O)N[C@H](CCC(=O)O)C(=O)N2)C(=O)CCSC[C@@H](C(N)=O)NC(=O)[C@H](Cc2c[nH]c3ccccc23)NC1=O [BCY7903, Ac-(SEQ ID NO: 140)]	41 nM	
CC[C@H](C)[C@@H]1NC(=O)[C@@H]2CCCN2C(=O)[C@H]([C@@H](C)O)NC(=O)[C@H](CO)NC(=O)[C@H](Cc2c[nH]c3ccccc23)NC(=O)[C@H](CC(N)=O)NC(=O)[C@H](CCCCNC(=N)N)NC(=O)[C@H](CCSC)NC(=O)[C@@H]2CSCCC(=O)N3CN(CN(C3)C(=O)CCSC[C@H](NC(C)=O)C(=O)N3CCC[C@H]3C(=O)N[C@@H](Cc3ccccc3)C(=O)N[C@H](CO)C(=O)N2)C(=O)CCSC[C@@H](C(N)=O)NC(=O)[C@H](Cc2c[nH]c3ccccc23)NC1=O [BCY7907, Ac-(SEQ ID NO: 143)]	10 nM	
CC[C@H](C)[C@@H]1NC(=O)[C@@H]2CCCN2C(=O)[C@H]([C@@H](C)O)N(C)C(=O)[C@H](CO)NC(=O)[C@H](Cc2c[nH]c3ccccc23)NC(=O)[C@H](CC(N)=O)NC(=O)[C@H](CCCCNC(=N)N)NC(=O)[C@@H]2CSCCC(=O)N3CN(CN(C3)C(=O)CCSC[C@H](NC(C)=O)C(=O)N3CCC[C@H]3C(=O)N[C@@H](Cc3ccccc3)C(=O)N[C@H](CC(=O)O)C(=O)N2)C(=O)CCSC[C@@H](C(N)=O)NC(=O)[C@H](Cc2c[nH]c3ccccc23)NC1=O [BCY7979, Ac-(SEQ ID NO: 152)] (Ac-CPF[dD]C[hArg]NWS[NMeT]PIWC-NH2; linker 1-5-14 via TATA; C-terminus assumed)	191 nM	

Source: patent publication US12459974B2, “Bicyclic peptide ligands specific for Nectin-4” (priority 2018, dated 2025)
